Results: the METLIN SMRT retention time set (Domingo-Almenara et al. 2019)

Assay: gradient 5% acetonitrile 3 min, to 50% in 2 min, to 85% in 15 min, held 3 min, 100 µL/min
Details: column: Zorbax Extend-C18 2.1 x 50 mm; eluents: water / acetonitrile, 0.1% formic acid
Procedure, shortened: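 The system's dead and dwell volumes were 40 μL and 900 μL, with a Zorbax Extend-C18 column (2.1 × 50 mm, 1.8 μm) run at 100 μL/min in water and acetonitrile containing 0.1% formic acid each. Pure standards were analyzed in mixtures of ~100 molecules by HPLC–quadrupole time-of-flight mass spectrometry in positive and negative ionization mode. Retention time was assigned from computationally picked, manually inspected adduct peaks.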

`COc1ccc(CNC(=O)CCc2nnc3c4cc(-c5ccccc5)nn4ccn23)cc1` showed an RP-LC retention time of 728 s.
`CC(C)n1cc(S(=O)(=O)Nc2ccc(F)cc2F)c2cccnc21` gave an RP-LC retention time of 890 s.
`Cc1nnc(-c2cn(CC(=O)Nc3ccccc3Br)c3ccccc23)o1` gave an RP-LC retention time of 829 s.
`Cc1cc(C)n(CCN2CCN(C(=O)C3CCC3)CC2)n1` gave an RP-LC retention time of 546 s.
`C[C@]12CC[C@@H]3c4ccc(O)cc4C[C@@H](CCCCCCCCCS(=O)CCCC(F)(F)C(F)(F)F)[C@H]3[C@@H]1CC[C@@H]2O` (stereo not given in full) gave an RP-LC retention time of 1250 s.
Compound `Cc1sc(NC(=O)CCC2CCCCC2)nc1-c1ccc2c(c1)NC(=O)C(C)O2` (stereo not given) has an RP-LC retention time of 679 s.
For `CC(C)(C)c1nnc(NC(=O)C2CCN(C(=O)c3ccc(F)cc3)CC2)s1`, the RP-LC retention time was 776 s.
`Cc1cc(N(C)C)n2nc(CN3CCN(c4ccccc4C)CC3)nc2n1` gave an RP-LC retention time of 633 s.
`COC1CN(C2CCN(C(=O)c3sc(C)nc3C)CC2)C12CCOCC2` (stereo not given) gave an RP-LC retention time of 796 s.
Work on `Cc1ccc(N2N=NC3C(=O)N(c4ccccc4)C(=O)C32)cc1C` (stereo not given) yielded an RP-LC retention time of 1010 s.
With `CC1CCCN(C(=O)c2nc(-c3ccnc(N4CCCC4)c3)no2)C1` (stereo not given) the RP-LC retention time was 682 s.
Compound `CC(=O)Nc1ccc(NC(=O)Cn2nc(C(=O)N3CCCCC3)c3ccccc32)cc1` has an RP-LC retention time of 678 s.
For `COC(=O)c1nnn(-c2ccc(OC)cc2)c1C(=O)OC`, the RP-LC retention time was 815 s.
`CCOC(=O)c1ccccc1NC(=O)N1CCc2nc[nH]c2C1` gave an RP-LC retention time of 626 s.
In the case of `Cc1cc(C)cc(N2CCC(NC(=O)NC(C)C)C2=O)c1` (stereo not given), the RP-LC retention time was 736 s.
With `COc1cccc(C(=O)N2CCc3c(c(-c4nnc(-c5ccccc5Cl)o4)nn3C)C2)c1OC` the RP-LC retention time was 822 s.
Work on `CCCNC(=O)CCc1nc2ccccc2n(CC(=O)NCc2ccccc2)c1=O` yielded an RP-LC retention time of 1270 s.
For `NC(=O)COc1c(F)cc(SCCNS(=O)(=O)c2ccccc2)cc1F`, the RP-LC retention time was 847 s.
With `CCn1cc(S(=O)(=O)N2C[C@H]3CN(S(=O)(=O)c4cccc(F)c4)C[C@@H](C2)O3)cn1` the RP-LC retention time was 815 s.
Compound `Cc1cc(=O)n(CC(C)O)c(-c2ccccc2)n1` (stereo not given) has an RP-LC retention time of 753 s.
`CC1Cc2cc(-c3cc(CC(=O)NCCc4ccc(S(N)(=O)=O)cc4)no3)ccc2O1` (stereo not given) gave an RP-LC retention time of 701 s.
`O=C(Nc1c(-c2ccccc2)nc2ccccn12)c1ccc(Br)cc1` gave an RP-LC retention time of 684 s.
Compound `Cn1ccc2cc(CCC(=O)N3CCN(c4ccc(F)cc4)CC3)ccc21` has an RP-LC retention time of 951 s.
With `COC(=O)c1c(NCC(C)O)c2cccc(Cl)c2[nH]c1=O` (stereo not given) the RP-LC retention time was 610 s.
With `O=C(NCc1ccc2c(c1)OCO2)c1ccc2c(c1)N(Cc1ccccc1)C(=O)CO2` the RP-LC retention time was 857 s.
With `CCOc1ccc(-c2cc(=O)n(CCCC(=O)Nc3ccc(-n4cnnn4)cc3)cn2)cc1` the RP-LC retention time was 696 s.
`O=C(c1cccs1)N1CCC2(CC1)N=C(c1ccccc1)NO2` gave an RP-LC retention time of 747 s.
With `Cc1cnn(Cc2nc(-c3ccc(NC(=O)C4CCCC4)cc3)oc2C)c1` the RP-LC retention time was 905 s.
With `CNC(=O)N1CCc2nn(Cc3ccccc3)c(=O)n2CC1` the RP-LC retention time was 614 s.
`O=C(NCc1ccccc1)c1ccc(=O)n(CCN2CCCC2)c1` showed an RP-LC retention time of 579 s.
Work on `CCN(CC)S(=O)(=O)c1cc(-c2nnc(-c3ccc(OC)cc3)o2)ccc1C` yielded an RP-LC retention time of 1030 s.
With `CCOC(=O)CC1(NC(=O)N2CCc3c(c(C(=O)N4CCCC4)nn3C)C2)CCCCC1` the RP-LC retention time was 764 s.
`Cc1c(C2CCN(C(=O)c3nccc4ccccc34)CC2)noc1N` gave an RP-LC retention time of 617 s.
With `O=C(Nc1ccc2c(c1)OCO2)C1CC(=O)N(c2n[nH]c3cccc(F)c23)C1` (stereo not given) the RP-LC retention time was 694 s.
For `CO[C@H]1C(=O)N(C2CCN(S(=O)(=O)c3c(C)noc3C)CC2)[C@H]1c1ccncc1`, the RP-LC retention time was 625 s.
With `CN1c2cc(Cl)ccc2C(=O)NC12CCN(C(=O)Nc1cccc(F)c1)CC2` the RP-LC retention time was 831 s.
Compound `COc1cccc(CN2N=C(C(=O)N3CCC(C)CC3)S(=O)(=O)c3ccc(C)cc32)c1` has an RP-LC retention time of 674 s.
Work on `CCCCOc1cc(CC2CNC(=O)N2)ccc1OC` (stereo not given) yielded an RP-LC retention time of 798 s.
In the case of `CC1=C(c2ccccc2)S(=O)(=O)N=C1N1CCCN(C(=O)C2CCC2)CC1`, the RP-LC retention time was 769 s.
Work on `CCOc1ccc(Nc2c(C(=O)N3CCCCC3CC)cnc3nc(C)ccc23)cc1` (stereo not given) yielded an RP-LC retention time of 683 s.
For `COc1ccc(C2Cn3nnc(C(=O)NC4CCCCCC4)c3CO2)cc1` (stereo not given), the RP-LC retention time was 1040 s.
Compound `COCCCNC(=O)c1cccnc1N1CCNC(c2ccccc2)C1` (stereo not given) has an RP-LC retention time of 578 s.
`COC(=O)c1c(C)[nH]c(C(=O)N2CCCC(C(=O)NCc3ccccc3C)C2)c1C` (stereo not given) showed an RP-LC retention time of 776 s.
Compound `COc1cccc(-n2c(=O)c(C(=O)Nc3cccc(Cl)c3)c(O)c3cccnc32)c1` has an RP-LC retention time of 1330 s.
In the case of `CC1CCN(C(=O)C2CCN(c3cc(N4CCCCC4)ncn3)CC2)CC1`, the RP-LC retention time was 676 s.
